Assay results as given in publication PMC10893631, “Receptor-based pharmacophore modeling, molecular docking, synthesis and biological evaluation of novel VEGFR-2, FGFR-1, and BRAF multi-kinase inhibitors” (BMC Chemistry, 2024).
Like-named read-outs stand apart in the source and are kept apart here.

How the values were obtained:
VEGFR-2 = target: T1, VEGFR-2 (Homo sapiens, UniProt P35968); assay: VEGFR-2 kinase assay kit (BPS), Kinase-Glo Max luminescence; assay type: biochemical; conditions: VEGFR-2, single dose 10 µM, duplicate, mean ± SD
T1 construct: purchased BPS Biosciences 40325
Procedure: 2. Biochemical kinase assay procedure
The inhibitory activity against different kinases was determined using kinase kits […]
from BPS Biosciences and kinase-Glo Max luminescence kinase assay kit (Promega).
The assay was carried out according to the protocol provided by the manufacturer. A stock solution of the synthesized derivatives in 100% DMSO was prepared. Subsequently, the compounds were diluted to 10% DMSO.
A master mixture was prepared according to the number of wells. For VEGFR-2 and FGFR-1 biochemical assays each well include 6 μl of 5x Kinase Buffer 1 + 1 μl of 500 μM ATP + 1 μl of PTK Substrate (Poly-Glu,Tyr 4:1) (10 mg/ml) + 17 μl of distilled water. For BRAF assay each well include 6 μl of 5x Kinase Buffer 1 + 1 μl of ATP (500 μM) + 10 μl of 5X Raf substrate + 8 μl of distilled water. 1x Kinase buffer 1 was prepared by mixing 600 μl of 5x Kinase Buffer 1 with 2400 μl water to give 3 mL. Kinases were thawed on ice and were diluted with 1x Kinase Buffer 1.
To start the biochemical reaction, 25 µL of the master mixture was added to each well in 96 well plate. 5 µL of 10% DMSO was added to positive control wells and blank wells. 5 µL of diluted inhibitor was added to each well labelled with the test inhibitor so that the final concentration of DMSO is 1% in all reactions. Then 20 µL of (1 ng / μl) in case of VEGFR-2 and FGFR-1 or (2.5 ng/μl) in case of BRAF in 1x kinase buffer was added to positive control wells and wells labelled with the inhibitor, while 20 µL 1x kinase buffer 1 was added to the […]
The plate was incubated at 30 °C for 45 min. Subsequently, 50 μl of Kinase-Glo Max luminescence reagent was added to each well and the plate was covered with aluminum foil and incubated at room temperature 15 min. Finally, the luminescence was recorded using multimode microplate reader. Kinase activity assays were performed in duplicate at each […]
The luminescence data were analyzed as follows. The difference between luminescence intensities in the absence of kinase (Lut) and in the presence of kinase (Luc) was defined as 100 % activity (Lut – Luc). Using luminescence signal (Lu) in the presence of the compound, % activity was calculated as: % activity = {(Lut - Lu)/(Lut - Luc)}×100%. The […]
concentration of the test compounds required to reduce the kinase activity by 50% was determined from dose-response curves and recorded as their IC50. […]

[1] = system: NCI panel of 60 tumor cell lines; assay: NCI SRB growth inhibition, whole panel mean (single dose 10 µM / five-dose); assay type: cell-based, human; conditions: Homo sapiens; for GI50: mean over NCI cancer cell lines, five-dose
Procedure: (§1) Screening of cytotoxic activity against a panel of sixty human tumor cell lines The selected compounds by NCI were evaluated for their anticancer activity in a two- stage process. […] Then, the output from the single dose screen is reported as a mean graph. […] Assay protocol. […] For a typical screening experiment, cells are inoculated into 96 well microtiter plates in 100 µL at plating densities ranging from 5000 to 40,000 cells/well depending on the doubling time of individual cell lines. […] After 24 h, two plates of each cell line are fixed in situ with TCA, to represent a measurement of the cell population for each cell line at the time of drug addition (Tz). The experimental drugs are solubilized in dimethyl sulfoxide at 400-fold the desired final maximum test concentration and stored frozen prior to use. At the time of drug addition, an aliquot of frozen concentrate is thawed and diluted to twice the desired final maximum test concentration with complete medium containing 50 µg/mL gentamicin. Additional four, 10-fold or ½ log serial dilutions are made to provide a total of five drug concentrations plus control. Aliquots of 100 mL of these different drug dilutions are added to the appropriate microtiter wells already containing […] of medium, resulting in the required final drug concentrations. […] For adherent cells, the assay is terminated by the addition of cold TCA. […] The supernatant is discarded, and the plates are washed five times with tap water and air dried. Sulforhodamine B (SRB) solution ([…]) at 0.4% (w/v) in 1% acetic acid is added to each well, and plates are incubated for 10 min at room temperature. After staining, unbound dye is removed by washing five times with 1% acetic acid and the plates are air dried. […] Using the seven absorbance measurements [time zero, (Tz), control growth, (C), and test growth in the presence of drug at the five concentration levels (Ti)], the percentage growth is calculated at each of the drug concentrations levels. Percentage growth inhibition is calculated as: [(Ti Tz)/(C–Tz)] x 100 for concentrations for which Ti>/=Tz and [(Ti-Tz)/Tz] x 100 for concentrations for which Ti < Tz. Three dose response parameters are calculated for each experimental agent. […] The drug concentration resulting in total growth inhibition (TGI) is calculated from Ti = Tz. […] Values are calculated for each of these three parameters if the level of activity is reached; however, if the effect is not reached or is exceeded, the value for that parameter is expressed as greater or less than the maximum or minimum concentration tested.

786–0 = assay: NCI SRB growth inhibition (single dose 10 µM / five-dose); assay type: cell-based, human; conditions: Homo sapiens; for inhibition at 10 µM: 786–0 (Renal cancer), read-out: GI%; for GI50: 786–0, Renal cancer, five-dose
Procedure: as §1

HL-60(TB) = assay: as above; assay type: cell-based, human; conditions: Homo sapiens; for inhibition at 10 µM: HL-60(TB) (Leukemia), read-out: GI%; for GI50: HL-60(TB), Leukemia, five-dose
Procedure: as §1

HOP-92 = assay: as above; assay type: cell-based, human; conditions: Homo sapiens; for inhibition at 10 µM: HOP-92 (Non-small cell lung cancer), read-out: GI%; for GI50: HOP-92, Non-small cell lung cancer, five-dose
Procedure: as §1

LOX IMVI = assay: as above; assay type: cell-based, human; conditions: Homo sapiens; for inhibition at 10 µM: LOX IMVI (Melanoma), read-out: GI%; for GI50: LOX IMVI, Melanoma, five-dose
Procedure: as §1

NCI-H23 = assay: as above; assay type: cell-based, human; conditions: Homo sapiens; for inhibition at 10 µM: NCI-H23 (Non-small cell lung cancer), read-out: GI%; for GI50: NCI-H23, Non-small cell lung cancer, five-dose
Procedure: as §1

NCI-H322M = assay: as above; assay type: cell-based, human; conditions: Homo sapiens; for inhibition at 10 µM: NCI-H322M (Non-small cell lung cancer), read-out: GI%; for GI50: NCI-H322M, Non-small cell lung cancer, five-dose
Procedure: as §1

NCI/ADR-RES = assay: as above; assay type: cell-based, human; conditions: Homo sapiens; for inhibition at 10 µM: NCI/ADR-RES (Ovarian cancer), read-out: GI%; for GI50: NCI/ADR-RES, Ovarian cancer, five-dose
Procedure: as §1

SF-539 = assay: as above; assay type: cell-based, human; conditions: Homo sapiens; for inhibition at 10 µM: SF-539 (CNS cancer), read-out: GI%; for GI50: SF-539, CNS cancer, five-dose
Procedure: as §1

UACC-257 = assay: as above; assay type: cell-based, human; conditions: Homo sapiens; for inhibition at 10 µM: UACC-257 (Melanoma), read-out: GI%; for GI50: UACC-257, Melanoma, five-dose
Procedure: as §1

UACC-62 = assay: as above; assay type: cell-based, human; conditions: Homo sapiens; for inhibition at 10 µM: UACC-62 (Melanoma), read-out: GI%; for GI50: UACC-62, Melanoma, five-dose
Procedure: as §1

[2] = mean over NCI 60 cell lines, > 100% = lethal effect, read-out: mean growth inhibition % (GI%)
[3] = mean over NCI panel of 60 tumor cell lines, read-out: Mean growth inhibition %

T1 sequence (P35968 20-1356): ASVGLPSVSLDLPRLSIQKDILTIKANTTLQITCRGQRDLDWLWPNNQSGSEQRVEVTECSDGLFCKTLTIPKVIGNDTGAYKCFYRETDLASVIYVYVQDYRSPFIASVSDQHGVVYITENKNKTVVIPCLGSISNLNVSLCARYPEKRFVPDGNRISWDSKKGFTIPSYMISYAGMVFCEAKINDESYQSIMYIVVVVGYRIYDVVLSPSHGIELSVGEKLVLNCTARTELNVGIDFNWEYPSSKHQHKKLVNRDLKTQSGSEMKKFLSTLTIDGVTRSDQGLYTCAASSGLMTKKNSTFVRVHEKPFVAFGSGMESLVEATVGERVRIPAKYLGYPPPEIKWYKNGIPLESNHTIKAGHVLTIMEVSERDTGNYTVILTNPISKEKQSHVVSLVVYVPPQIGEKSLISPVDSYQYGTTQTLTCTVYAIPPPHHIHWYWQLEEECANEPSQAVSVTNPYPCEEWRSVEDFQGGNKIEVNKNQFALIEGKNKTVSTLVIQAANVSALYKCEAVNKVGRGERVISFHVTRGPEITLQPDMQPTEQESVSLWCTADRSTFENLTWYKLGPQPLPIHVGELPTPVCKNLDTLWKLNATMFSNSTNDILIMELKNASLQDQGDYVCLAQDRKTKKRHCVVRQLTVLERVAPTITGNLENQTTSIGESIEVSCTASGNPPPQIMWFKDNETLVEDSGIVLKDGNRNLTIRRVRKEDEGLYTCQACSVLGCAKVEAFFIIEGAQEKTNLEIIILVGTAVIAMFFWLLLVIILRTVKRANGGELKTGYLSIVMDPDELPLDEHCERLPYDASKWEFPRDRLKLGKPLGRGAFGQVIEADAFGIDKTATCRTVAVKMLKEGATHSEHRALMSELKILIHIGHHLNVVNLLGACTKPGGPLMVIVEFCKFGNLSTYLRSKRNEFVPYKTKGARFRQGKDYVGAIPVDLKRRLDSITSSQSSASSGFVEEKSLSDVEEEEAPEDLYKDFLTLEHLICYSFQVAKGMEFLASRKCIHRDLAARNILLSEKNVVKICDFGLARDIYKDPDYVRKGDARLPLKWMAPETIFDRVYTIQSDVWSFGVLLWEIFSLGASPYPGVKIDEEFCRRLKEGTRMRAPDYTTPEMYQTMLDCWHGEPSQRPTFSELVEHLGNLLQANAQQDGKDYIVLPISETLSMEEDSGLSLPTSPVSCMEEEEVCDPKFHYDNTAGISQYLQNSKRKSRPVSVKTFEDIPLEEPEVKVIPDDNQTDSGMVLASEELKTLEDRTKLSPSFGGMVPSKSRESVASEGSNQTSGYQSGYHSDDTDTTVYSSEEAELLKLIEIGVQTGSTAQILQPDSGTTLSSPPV

Structure (SMILES) | inhibition at 10 µM (VEGFR-2) [%] | inhibition at 10 µM [1, 2] [%] | inhibition at 10 µM [1, 3] [%] | inhibition at 10 µM (786–0) [%] | inhibition at 10 µM (HL-60(TB)) [%] | inhibition at 10 µM (HOP-92) [%] | inhibition at 10 µM (LOX IMVI) [%] | inhibition at 10 µM (NCI-H23) [%] | inhibition at 10 µM (NCI-H322M) [%] | inhibition at 10 µM (NCI/ADR-RES) [%] | inhibition at 10 µM (SF-539) [%] | inhibition at 10 µM (UACC-257) [%] | inhibition at 10 µM (UACC-62) [%] | GI50 [1] [µM] | GI50 (786–0) [µM] | GI50 (HL-60(TB)) [µM] | GI50 (LOX IMVI) [µM] | GI50 (NCI-H23) [µM] | GI50 (NCI-H322M) [µM] | GI50 (SF-539) [µM] | other results
O=C(NN=Cc1cccc(O)c1)c1ccc2[nH]c(-c3ccc(Cl)cc3)nc2c1 [8p, 2-(4-Chlorophenyl)-N'-(3-hydroxybenzylidene)-1H-benzo[d]imidazole-5-carbohydrazide] | 22.3 ± 0.86 | 25.4 | 25.4 | 22.2 | < 5 | 6.79 | 14.7 | 56.6 | < 5 | < 5 | 32.4 | < 5 | 19.6 |  |  |  |  |  |  |  | 
COc1cccc(C=NNC(=O)c2ccc3[nH]c(-c4ccc(Cl)cc4)nc3c2)c1 [8q, 2-(4-Chlorophenyl)-N'-(3-methoxybenzylidene)-1H-benzo[d]imidazole-5-carbohydrazide] | 21.5 ± 1.54 | > 100 | > 100 | > 100 | 50.7 | > 100 | > 100 | > 100 | > 100 | 23 | > 100 | > 100 | > 100 | 5.4 | 1.85 | 19.5 | 1.82 | 2.2 | 3.57 | 7.14 | GI50 (NCI/ADR-RES): 94.8 µM; GI50 (UACC-257): 4.8 µM; GI50 (UACC-62): 4.92 µM
COc1cccc(C=NNC(=O)c2ccc3[nH]c(-c4ccc(Cl)cc4)nc3c2)c1O [8r, 2-(4-Chlorophenyl)-N'-(2-hydroxy-3-methoxybenzylidene)-1H-benzo[d]imidazole-5-carbohydrazide] | 25.7 ± 1.87 | > 100 | > 100 | > 100 | > 100 | > 100 | > 100 | > 100 | > 100 | 49.3 | > 100 | > 100 | > 100 | 3.39 | 1.49 | 1.95 | 1.18 | 1.15 | 1.59 | 1.07 | GI50 (HOP-92): 1.25 µM; GI50 (NCI/ADR-RES): > 100 µM; GI50 (UACC-257): 2.35 µM; GI50 (UACC-62): 1.23 µM
COc1ccc(C=NNC(=O)c2ccc3[nH]c(-c4ccc(Cl)cc4)nc3c2)cc1O [8s, 2-(4-Chlorophenyl)-N'-(3-hydroxy-4-methoxybenzylidene)-1H-benzo[d]imidazole-5-carbohydrazide] | 26.7 ± 1.83 | 49.5 | 49.5 | 52 | 45.3 | < 5 | 44.9 | 29.2 | 18.1 | < 5 | 47.2 | 24.6 | 37.5 |  |  |  |  |  |  |  | 
COc1ccc(OC)c(C=NNC(=O)c2ccc3[nH]c(-c4ccc(Cl)cc4)nc3c2)c1 [8t, 2-(4-Chlorophenyl)-N'-(2,5-dimethoxybenzylidene)-1H-benzo[d]imidazole-5-carbohydrazide] | 34 ± 2.57 | 33.5 | 33.5 | 26.6 | 12.9 | 36.6 | 34.6 | 33.9 | 28.9 | 11.2 | 45.3 | < 5 | 24.3 |  |  |  |  |  |  |  | 
COc1cc(C=NNC(=O)c2ccc3[nH]c(-c4ccc(Cl)cc4)nc3c2)cc(OC)c1OC [8u, 2-(4-Chlorophenyl)-N'-(3,4,5-trimethoxybenzylidene)-1H-benzo[d]imidazole-5-carbohydrazide] | 80 ± 3.98 | > 100 | > 100 | > 100 | 67.8 | > 100 | > 100 | > 100 | 96.1 | 24.3 | > 100 | > 100 | > 100 | 7.98 | 4.88 | 3.9 | 4.67 | 4.72 | 8.29 | 2.02 | GI50 (HOP-92): 5.95 µM; GI50 (UACC-257): 4.67 µM; GI50 (UACC-62): 1.24 µM
